Data taken from patent US5166321A, “Cecropin polypetides with activity against Gram-positive and Gram-negative bacteria” (International Genetic Engineering, Inc., priority 1987, dated 1992).
Square brackets hold non-standard residues; d marks the D form. Ends that are not written are not given here. Peptide text beside a SMILES is read from it. hSer = N[C@@H](CCO)C(=O)O

What was measured:
E. coli MC1061 = experiment: Agar-well halo assay of bactericidal activity; type: cell-based, Escherichia coli; conditions: overnight incubation at 25° C.
Experimental: (§1) The assay for antimicrobial activity was performed by pouring 10 ml of agar in TYE media containing about 10^7 viable cells of the test organisms. Wells, 2 mm in diameter, were punched in the agar plates. Aliquots of the modified cecropin-like polypeptides (2-12 ul) were then added to each well. The diameter of the inhibition zones, or haloes, around the wells, were measured after overnight incubation at 25° C.
(§2) The activities of various cecropin-like polypeptides were tested against both Gram-negative and Gram-positive organisms. Anti-microbial activity against the Gram-negative organisms remained unaltered for most of the Gram-negative bacteria (except, i.e., Serratia marcescens) as shown in Table 1. […] To determine a standard of halo formation, the various modified cecropin-like polypeptides were also applied to E. coli D21. Activity shown in Tables 1 and 2 is expressed as the ratio of the radius of the cleared halo for each organism versus that for E. coli D21.

S. typhimurium = experiment: Agar-well halo assay of bactericidal activity; type: cell-based, Salmonella typhimurium; conditions: overnight incubation at 25° C.
Experimental: as §1, §2

E. cloacae = experiment: Agar-well halo assay of bactericidal activity; type: cell-based; conditions: overnight incubation at 25° C.
Experimental: as §1, §2

P. aeruginosa = experiment: Agar-well halo assay of bactericidal activity; type: cell-based, Pseudomonas aeruginosa; conditions: overnight incubation at 25° C.
Experimental: as §1, §2

Bacillus megaterium [1] = experiment: Agar-well halo assay of bactericidal activity; type: cell-based; conditions: for Relative activity (ratio of the radius of the cleared halo versus that for E. coli D21): B. megaterium, overnight incubation at 25° C.
Experimental: as §1, §2
(§3) The cecropin-like polypeptide modified at the carboxy terminus with ethylenediamine and naturally occurring cecropin A were tested against a variety of organisms. The relative activities of the antimicrobial agents were expressed per nanomole of polypeptide applied to each well (Table 3).

Micrococcus luteus = experiment: Agar-well halo assay of bactericidal activity; type: cell-based; conditions: for Relative activity (ratio of the radius of the cleared halo versus that for E. coli D21): M. luteus, overnight incubation at 25° C.
Experimental: as §1, §2, §3

Streptococcus faecalis = experiment: Agar-well halo assay of bactericidal activity; type: cell-based; conditions: for Relative activity (ratio of the radius of the cleared halo versus that for E. coli D21): S. faecalis, overnight incubation at 25° C.
Experimental: as §1, §2, §3

B. subtilis = experiment: Agar-well halo assay of bactericidal activity; type: cell-based, Bacillus subtilis; conditions: for Relative activity (ratio of the radius of the cleared halo versus that for E. coli D21): B. subtilis, overnight incubation at 25° C.
Experimental: as §1, §2, §3

Escherichia coli = experiment: Agar-well halo assay, activity per nanomole; type: cell-based; conditions: per nanomole of polypeptide applied to each well
Experimental: as §1, §3

Bacillus megaterium [2] = conditions: from the literature; cited from earlier work

Compound | Relative activity (ratio of the radius of the cleared halo versus that for E. coli D21) (E. coli MC1061) | Relative activity (ratio of the radius of the cleared halo versus that for E. coli D21) (S. typhimurium) | Relative activity (ratio of the radius of the cleared halo versus that for E. coli D21) (E. cloacae) | Relative activity (ratio of the radius of the cleared halo versus that for E. coli D21) (P. aeruginosa) | Relative activity (ratio of the radius of the cleared halo versus that for E. coli D21) (Bacillus megaterium [1]) | Relative activity (ratio of the radius of the cleared halo versus that for E. coli D21) (Micrococcus luteus) | Relative activity (ratio of the radius of the cleared halo versus that for E. coli D21) (Streptococcus faecalis) | Relative activity (ratio of the radius of the cleared halo versus that for E. coli D21) (B. subtilis) | Activity per Nanomole (radius of the inhibitory ring) (Bacillus megaterium [1]; Bacillus megaterium, per nanomole of polypeptide applied to each well) | Activity per Nanomole (radius of the inhibitory ring) (Micrococcus luteus; Micrococcus luteus, per nanomole of polypeptide applied to each well) | Activity per Nanomole (radius of the inhibitory ring) (Streptococcus faecalis; Streptococcus faecalis, per nanomole of polypeptide applied to each well) | Activity per Nanomole (radius of the inhibitory ring) (B. subtilis; Bacillus subtilus, per nanomole of polypeptide applied to each well) | Activity per Nanomole (radius of the inhibitory ring) (Escherichia coli) | Sensitivity of Bacillus megaterium to the cecropin (Bacillus megaterium [2])
CC[C@H](C)[C@H](NC(=O)CNC(=O)[C@H](CC(=O)O)NC(=O)[C@H](CCCNC(=N)N)NC(=O)[C@@H](NC(=O)[C@H](CC(N)=O)NC(=O)[C@H](CCC(N)=O)NC(=O)CNC(=O)[C@@H](NC(=O)[C@H](CCCCN)NC(=O)[C@H](CCC(=O)O)NC(=O)[C@@H](NC(=O)[C@H](CCCCN)NC(=O)[C@H](CCCCN)NC(=O)[C@H](Cc1ccccc1)NC(=O)[C@H](CC(C)C)NC(=O)[C@H](CCCCN)NC(=O)[C@H](Cc1c[nH]c2ccccc12)NC(=O)[C@@H](N)CCCCN)[C@@H](C)CC)C(C)C)[C@@H](C)CC)C(=O)N[C@H](C(=O)N[C@@H](CCCCN)C(=O)N[C@@H](C)C(=O)NCC(=O)N1CCC[C@H]1C(=O)N[C@@H](C)C(=O)N[C@H](C(=O)N[C@@H](C)C(=O)N[C@H](C(=O)N[C@H](C(=O)NCC(=O)N[C@@H](CCC(N)=O)C(=O)N[C@@H](C)C(=O)N[C@H](C(=O)N[C@@H](CCC(N)=O)C(=O)N[C@H](C(=O)N[C@@H](C)C(=O)N[C@@H](CCCCN)C(=O)N[C@@H](CCO)C(N)=O)[C@@H](C)CC)[C@@H](C)O)C(C)C)C(C)C)C(C)C)[C@@H](C)CC [CA-HS-CONH2] (H-KWKLFKKIEKVGQNIRDGIIKAGPAVAVVGQATQIAK[hSer]-NH2) | 0.81 | 1.09 | 0.86 | 0.71 | 0.4 | 1.4 ± 0.2 | 0 | 0.06 ± 0.06 | – | – | – | – | – | –
CC[C@H](C)[C@H](NC(=O)CNC(=O)[C@H](CC(=O)O)NC(=O)[C@H](CCCNC(=N)N)NC(=O)[C@@H](NC(=O)[C@H](CC(N)=O)NC(=O)[C@H](CCC(N)=O)NC(=O)CNC(=O)[C@@H](NC(=O)[C@H](CCCCN)NC(=O)[C@H](CCC(=O)O)NC(=O)[C@@H](NC(=O)[C@H](CCCCN)NC(=O)[C@H](CCCCN)NC(=O)[C@H](Cc1ccccc1)NC(=O)[C@H](CC(C)C)NC(=O)[C@H](CCCCN)NC(=O)[C@H](Cc1c[nH]c2ccccc12)NC(=O)[C@@H](N)CCCCN)[C@@H](C)CC)C(C)C)[C@@H](C)CC)C(=O)N[C@H](C(=O)N[C@@H](CCCCN)C(=O)N[C@@H](C)C(=O)NCC(=O)N1CCC[C@H]1C(=O)N[C@@H](C)C(=O)N[C@H](C(=O)N[C@@H](C)C(=O)N[C@H](C(=O)N[C@H](C(=O)NCC(=O)N[C@@H](CCC(N)=O)C(=O)N[C@@H](C)C(=O)N[C@H](C(=O)N[C@@H](CCC(N)=O)C(=O)N[C@H](C(=O)N[C@@H](C)C(=O)N[C@@H](CCCCN)C(=O)N[C@@H](CCO)C(=O)O)[C@@H](C)CC)[C@@H](C)O)C(C)C)C(C)C)C(C)C)[C@@H](C)CC [CA-HS-COOH] (H-KWKLFKKIEKVGQNIRDGIIKAGPAVAVVGQATQIAK[hSer]-OH) | 0.86 | 1.07 | 0.79 | 0.76 | 0.5 | 0.1 ± 0.1 | 0 | 0 | – | – | – | – | – | –
KWKLFKKIEKVGQNIRDGIIKAGPAVAVVGQATQIAK [CA-COOH] | 0.84 | 1.09 | 0.84 | 0.70 | 0.2 | 0 | 0 | 0 | – | – | – | – | – | –
KWKLFKKIEKVGQNIRDGIIKAGPAVAVVGQATQIAK-NH2 [CA-NH2, cecropin A, reference compound] | 0.80 | 1.06 | 0.92 | 0.70 | 0.7 | 1.2 ± 0.2 | 0 | 0.1 ± 0.05 | 5.1 millimeters | 6.1 millimeters | < 0.5 millimeters | < 0.5 millimeters | 6.1 millimeters | highly sensitive
cecropin B (KWKVFKKIEKMGRNIRNGIVKAGPAIAVLGEAKAL; ends and bridges not checked; UniProt P01508 27-61, looked up) [major natural antibacterial peptide purified from immune hemolymph] | – | – | – | – | – | – | – | – | – | – | – | – | – | highly sensitive
cecropin D | – | – | – | – | – | – | – | – | – | – | – | – | – | relatively resistant
